# What was measured:
# Experiment in all cases: relative viability (nuclei count vs DMSO), 5 days (fraction); higher = more cells survive
# Erlotinib + Trametinib = compound: C#Cc1cccc(Nc2ncnc3cc(OCCOC)c(OCCOC)cc23)c1 [Erlotinib] + CC(=O)Nc1cccc(-n2c(=O)n(C3CC3)c(=O)c3c(Nc4ccc(I)cc4F)n(C)c(=O)c(C)c32)c1 [Trametinib] (partner 0.02 µM)
# Method in brief: (§1)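 Each reported value is a median over duplicate plates. It expresses relative viability: treated-well nuclei count divided by vehicle-well nuclei count. Lung cancer cell lines in 1536-well plates were dosed by pin tool a day after seeding, alone with one drug or with a fixed anchor-drug dose plus five library-drug doses (not always all listed) in √10 steps, and nuclei were counted after 5 days.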
# Erlotinib + Pictilisib = compound: C#Cc1cccc(Nc2ncnc3cc(OCCOC)c(OCCOC)cc23)c1 [Erlotinib] + CS(=O)(=O)N1CCN(Cc2cc3nc(-c4cccc5[nH]ncc45)nc(N4CCOCC4)c3s2)CC1 [Pictilisib] (partner 1 µM)
# Method in brief: as §1
# Erlotinib + Pemetrexed = compound: C#Cc1cccc(Nc2ncnc3cc(OCCOC)c(OCCOC)cc23)c1 [Erlotinib] + Nc1nc2[nH]cc(CCc3ccc(C(=O)N[C@@H](CCC(=O)O)C(=O)O)cc3)c2c(=O)[nH]1 [Pemetrexed] (partner 0.2 µM)
# Method in brief: as §1
# AT9283 + OSI-027 = compound: O=C(Nc1c[nH]nc1-c1nc2ccc(CN3CCOCC3)cc2[nH]1)NC1CC1 [AT9283] + COc1cccc2cc(-c3nc([C@H]4CC[C@H](C(=O)O)CC4)n4ncnc(N)c34)[nH]c12 [OSI-027] (partner 0.5 µM)
# Method in brief: as §1
# AT9283 + Pictilisib = compound: O=C(Nc1c[nH]nc1-c1nc2ccc(CN3CCOCC3)cc2[nH]1)NC1CC1 [AT9283] + CS(=O)(=O)N1CCN(Cc2cc3nc(-c4cccc5[nH]ncc45)nc(N4CCOCC4)c3s2)CC1 [Pictilisib] (partner 1 µM)
# Method in brief: as §1
cell line,measurement,setting,value
NCI-H441,relative viability,Erlotinib + Trametinib; first compound 0.02 µM,0.457
same,relative viability,Erlotinib + Trametinib; first compound 0.6325 µM,0.442
same,relative viability,Erlotinib + Trametinib; first compound 2 µM,0.328
same,relative viability,Erlotinib + Pictilisib; first compound 0.02 µM,0.448
same,relative viability,Erlotinib + Pictilisib; first compound 0.2 µM,0.495
same,relative viability,Erlotinib + Pictilisib; first compound 0.6325 µM,0.393
same,relative viability,Erlotinib + Pictilisib; first compound 2 µM,0.392
same,relative viability,Erlotinib + Pemetrexed; first compound 0.02 µM,0.284
same,relative viability,Erlotinib + Pemetrexed; first compound 0.2 µM,0.275
same,relative viability,Erlotinib + Pemetrexed; first compound 0.6325 µM,0.259
same,relative viability,Erlotinib + Pemetrexed; first compound 2 µM,0.275
same,relative viability,AT9283 + OSI-027; first compound 0.003 µM,0.532
same,relative viability,AT9283 + OSI-027; first compound 0.03 µM,0.574
same,relative viability,AT9283 + OSI-027; first compound 0.09487 µM,0.321
same,relative viability,AT9283 + OSI-027; first compound 0.3 µM,0.333
same,relative viability,AT9283 + Pictilisib; first compound 0.003 µM,0.359
same,relative viability,AT9283 + Pictilisib; first compound 0.03 µM,0.469
same,relative viability,AT9283 + Pictilisib; first compound 0.09487 µM,0.138
same,relative viability,AT9283 + Pictilisib; first compound 0.3 µM,0.186

# Reference: the supplement of paper PMC10307832
